According to patent US9161945B2, “4-isopropyl-6-methoxyphenyl glucitol compound” (TAISHO PHARMACEUTICAL CO., LTD., priority 2010, dated 2015):
pIC50: −log10 of the molar value. Marks after values point to notes of the source that are not given here.

Key:
[1] = Oral glucose tolerance test (hypoglycemic effect) in streptozotocin diabetic model rats; assay type: in vivo, SD/IGS rats; conditions: OGTT using Sprague-Dawley rats, not STZ rats; oral dose 1 mg/kg
Description: (§1) Test Example 3 Confirmation study of hypoglycemic effect in streptozotocin diabetic model rats
(§2) (1) Preparation of Diabetic Model Rats
(§3) SD/IGS rats at 7 weeks of age (male, Charles River Laboratories Japan Inc.) were fasted for about 16 hours and then injected with 50 mg/kg streptozotocin (STZ) via the caudal vein under ether anesthesia to prepare diabetic model rats. Similarly, another group of SD/IGS rats at 7 weeks of age was injected with 1.25 mmol/L citric acid in physiological saline (1 mL/kg) via the caudal vein under ether anesthesia to prepare normal control rats. At one week after injection of STZ or 1.25 mmol/L citric acid in physiological saline, the rats (8 weeks old) were provided for an oral glucose tolerance test.
(§4) (2) Oral Glucose Tolerance Test
(§5) […] At 5 minutes after drug administration, a glucose solution (2 g/kg) was orally administered to each rat, and the blood was collected at a total of 5 time points: before drug administration (0 time), and at 0.25, 0.5, 1 and 2 hours after the oral administration.
(§6) Blood was collected from the caudal veins of the rats under ether anesthesia with the use of a heparin-coated blood collecting tube and centrifuged, whereafter blood plasma was separated. Plasma glucose concentrations were quantified by measurement with a Glucose CII-Test Wako (Wako Pure Chemical Industries, Ltd., Japan). To determine the intensity of hypoglycemic effect, the blood glucose level before drug administration was subtracted from each blood glucose level measured until one hour after oral administration in each drug group, and the resulting values were analyzed by the trapezoidal method to calculate an increment in the area under the curve for glucose (ΔAUC), which was expressed as a decrease relative to ΔAUC of the control group.

[2] = Renal concentrations until one week after single oral administration; assay type: in vivo, SD/IGS rats; conditions: male Sprague-Dawley rats
Description: (1) Changes in Renal Concentrations of Compounds 4, 10, 11 and 33 Disclosed in WO2007/136116 Until One Week After Oral Administration
SD/IGS rats at 7 weeks of age (male, non-fasting, Charles River Laboratories Japan Inc.) were orally administered with compound 4, 10 or 33 (1 mg/kg each) or compound 11 (0.3 mg/kg) prepared in a 0.5% aqueous solution of CMC. At 24, 72 and 168 hours after drug administration, the rats were exsanguinated via the postcaval vein under ether anesthesia, and their kidneys were excised after they were confirmed to be euthanized. After the tissue surface was washed with physiological saline, each tissue was measured for its weight and homogenized in 4 volumes of purified water under ice cooling. To each homogenate, an acetonitrile/methanol solution containing an internal standard substance was added to remove proteins, and the supernatant was then subjected to LC-MS/MS (Applied Biosystems API3000). Drug-derived ions generated by electrospray ionization in positive ion mode were detected by selective reaction monitoring. The peak area of the resulting extracted ion chromatogram was analyzed by the internal standard method to calculate the drug concentration in the homogenate.
As the internal standard material for compounds 10 and 33, (1S)-1,5-anhydro-1-[5-(4-ethoxybenzyl)-2-methoxy-4-methylphenyl]-1-thio-D-glucitol,ethyl-D5 was used. As the internal standard materials for compounds 4 and 11, compound 11 and deuterium-labeled compound 11 (trishydroxymethyl-D6; —C(CD2OH)3), respectively, were used.

[3] = Renal concentrations after repeated oral administration for 3 days; assay type: in vivo, SD/IGS rats
Description: (2) Renal Concentrations of the Compound (I) of the Present Invention After Repeated Oral Administration for 3 Days
SD/IGS rats at 7 weeks of age (male, non-fasting, Charles River Laboratories Japan Inc.) were orally administered once a day for 3 consecutive days with the compound (I) (3 mg/kg) prepared in a 0.5% aqueous solution of CMC. At 48 hours after the final drug administration, the rats were exsanguinated via the postcaval vein under isoflurane anesthesia, and their kidneys were excised after they were confirmed to be euthanized. After the tissue surface was washed with physiological saline, each tissue was measured for its weight and homogenized in 4 volumes of purified water under ice cooling. The drug concentration in each homogenate was determined in the same manner as shown in Test Example 2(1) by LC-MS/MS using compound 11 as an internal standard substance.

[4] = tested on: streptozotocin diabetic model rats; assay: Oral glucose tolerance test (hypoglycemic effect) in streptozotocin diabetic model rats; assay type: in vivo, SD/IGS rats; conditions: for STZ rats OGTT % inhibition ΔAUC0-1h (mg/dl) @ 1 mg/kg/po: STZ-induced diabetic rats versus vehicle control, oral dose 1 mg/kg, glucose 2 g/kg
Description: as §1, §2, §3, §4, §5, §6

[5] = biological target: human SGLT2 (Homo sapiens (Human), UniProt P31639); assay: Inhibition test of sodium-dependent glucose uptake in CHO-K1 cells stably expressing human SGLT2; assay type: cell-based; conditions: [14C]methyl α-D-glucopyranoside uptake, 37° C., 60 minutes, read-out: IC50 for hSGLT2
human SGLT2, sequence (P31639 whole entry): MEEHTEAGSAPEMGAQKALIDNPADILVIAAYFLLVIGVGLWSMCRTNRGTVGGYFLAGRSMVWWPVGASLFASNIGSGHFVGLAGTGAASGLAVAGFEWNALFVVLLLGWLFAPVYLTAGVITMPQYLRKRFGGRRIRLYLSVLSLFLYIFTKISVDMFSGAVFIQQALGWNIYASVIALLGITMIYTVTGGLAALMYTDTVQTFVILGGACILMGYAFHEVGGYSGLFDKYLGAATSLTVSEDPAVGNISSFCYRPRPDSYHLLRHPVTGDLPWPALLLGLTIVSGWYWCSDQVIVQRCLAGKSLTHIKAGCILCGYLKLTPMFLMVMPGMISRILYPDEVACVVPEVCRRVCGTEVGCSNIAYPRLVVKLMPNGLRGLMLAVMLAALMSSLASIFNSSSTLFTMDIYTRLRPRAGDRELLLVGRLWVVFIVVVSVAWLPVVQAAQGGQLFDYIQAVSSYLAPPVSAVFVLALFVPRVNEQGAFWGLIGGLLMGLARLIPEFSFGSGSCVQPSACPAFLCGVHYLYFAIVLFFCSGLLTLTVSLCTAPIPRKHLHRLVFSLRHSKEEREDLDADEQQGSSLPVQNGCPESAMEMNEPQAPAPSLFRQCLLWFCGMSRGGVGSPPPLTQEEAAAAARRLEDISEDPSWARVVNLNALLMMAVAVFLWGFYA
Description: (2) Creation of CHO-K1 Cells Stably Expressing Human SGLT2
(§7) A plasmid vector expressing human SGLT2 protein was transfected into CHO-K1 cells using Lipofectamine LTX (Invitrogen). The cells were cultured in the presence of 1000 μg/mL geneticin to select resistant strains, followed by screening in the system shown below using sugar uptake capacity as an indicator to obtain SGLT2-expressing cells.
(§8) (3) Inhibition Test of Sodium-Dependent Glucose Uptake in Stable Expression Cells
(§9) The stably expressing cells prepared above were used in the following test.
(§10) Pretreatment buffer (140 mM choline chloride, 2 mM KCl, 1 mM CaCl2, 1 mM MgCl2, 10 mM HEPES/5 mM Tris, pH 7.4) was added to the stably expressing cells, followed by incubation for 20 minutes. The pretreatment buffer was removed and replaced by uptake buffer containing a test compound (1 mM methyl α-D-glucopyranoside (containing [^14C]methyl α-D-glucopyranoside), 145 mM NaCl, 2 mM KCl, 1 mM CaCl2, 1 mM MgCl2, 10 mM HEPES/5 mM Tris, pH 7.4). Uptake reaction was performed at 37° C. for 30 minutes (SGLT1) or 60 minutes (SGLT2). […] A liquid scintillator (Perkin Elmer) was added and mixed well, followed by measurement of radioactivity using a β-ray analyzer. […]

[6] = biological target: human SGLT1 (Homo sapiens (Human), UniProt P13866); assay: Inhibition test of sodium-dependent glucose uptake in CHO-K1 cells stably expressing human SGLT1; assay type: cell-based; conditions: [14C]methyl α-D-glucopyranoside uptake, 37° C., 30 minutes, read-out: IC50 for hSGLT1
human SGLT1, sequence (P13866 whole entry): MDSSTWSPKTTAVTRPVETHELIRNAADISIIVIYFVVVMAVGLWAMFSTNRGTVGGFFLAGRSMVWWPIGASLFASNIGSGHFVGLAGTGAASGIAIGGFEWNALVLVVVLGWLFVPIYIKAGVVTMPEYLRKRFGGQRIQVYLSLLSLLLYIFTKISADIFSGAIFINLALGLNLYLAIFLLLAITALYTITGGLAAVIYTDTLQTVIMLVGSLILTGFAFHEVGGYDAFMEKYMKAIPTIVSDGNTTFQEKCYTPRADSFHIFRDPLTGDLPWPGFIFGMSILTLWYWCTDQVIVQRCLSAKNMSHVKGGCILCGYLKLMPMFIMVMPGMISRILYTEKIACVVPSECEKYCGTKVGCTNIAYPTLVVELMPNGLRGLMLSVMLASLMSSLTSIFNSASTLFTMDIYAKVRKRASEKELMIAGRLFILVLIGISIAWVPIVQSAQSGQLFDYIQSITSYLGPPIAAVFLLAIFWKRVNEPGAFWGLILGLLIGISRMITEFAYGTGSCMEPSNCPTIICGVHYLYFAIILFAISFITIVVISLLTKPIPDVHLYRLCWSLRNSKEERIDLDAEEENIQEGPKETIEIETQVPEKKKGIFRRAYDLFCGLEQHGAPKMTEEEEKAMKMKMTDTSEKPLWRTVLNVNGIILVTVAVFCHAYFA
Description: (1) Creation of CHO-K1 Cells Stably Expressing Human SGLT1
as §7, with “SGLT1” for “SGLT2”, “2000” for “LTX”, “500” for “1000”, “SGLT1-expressing” for “SGLT2-expressing”
as §8, §9, §10

| Compound | Concentration of compounds in kidney after single oral administration, After 1 day ([2]; 1 mg/kg po, 1 day (24 hours)) | Concentration of compounds in kidney after single oral administration, After 3 days ([2]; 1 mg/kg po, 3 days (72 hours)) | Concentration of compounds in kidney after single oral administration, After 7 days ([2]; 1 mg/kg po, 7 days (168 hours)) | STZ rats OGTT % inhibition ΔAUC0-1h (mg/dl) @ 1 mg/kg/po [4] | further results |
| --- | --- | --- | --- | --- | --- |
| Cc1cc(O)c([C@@H]2O[C@H](CO)[C@@H](O)[C@H](O)[C@H]2O)cc1Cc1ccc(CCNC(=O)NC2CCN(Cc3ccccc3)CC2)cc1 [compound 33] | 29.8 ± 6.79 ng/g | 25.5 ± 8.68 ng/g | 16.2 ± 3.11 ng/g | – | OGTT % inhibition ΔAUC0-1h (mg/dl) @ 1 mg/kg/po [1]: 81^# % |
| COc1cc(C(C)C)c(Cc2ccc(/C=C/C(C)(C)C(=O)NC(C)(C)C(N)=O)cc2C)cc1[C@@H]1O[C@H](CO)[C@@H](O)[C@H](O)[C@H]1O [Compound (I)] | – | – | – | – | remaining in the kidney (in words) ([3]; 3 mg/kg for 3 consecutive days, at subsequent day 2): did not remain in the kidney; Concentration of compounds in kidney after 3 days continuous oral administration, After 2 days ([3]; 3 mg/kg po once a day for 3 days, male Sprague-Dawley rats, 48 hours after final administration, limit of detection 5 ng/g): ND^# (ND (not determined) means limit of detection (5 ng/g).); hypoglycemic action (in words) ([4]; glucose tolerance test, compound of the invention): potent hypoglycemic action; pIC50 [5]: 6.26; pIC50 [6]: 7.19 |
| Cc1cc(O)c([C@@H]2O[C@H](CO)[C@@H](O)[C@H](O)[C@H]2O)cc1Cc1ccc(CCNC(=O)NC(CO)(CO)CO)cc1 [compound 11] | – | – | – | 68% | Concentration of compounds in kidney after single oral administration, After 1 day ([2]; 0.3 mg/kg po (footnote *), 1 day, mean ± S.D.): 63.5 ± 20.1* ng/g; Concentration of compounds in kidney after single oral administration, After 3 days ([2]; 0.3 mg/kg po (footnote *), 3 days, mean ± S.D.): 67.3 ± 3.15* ng/g; Concentration of compounds in kidney after single oral administration, After 7 days ([2]; 0.3 mg/kg po (footnote *), 7 days, mean ± S.D.): 48.7 ± 18.3* ng/g |
| Cc1cc(O)c([C@@H]2O[C@H](CO)[C@@H](O)[C@H](O)[C@H]2O)cc1Cc1ccc(CCNC(=O)NC(C)(C)CO)cc1 [compound 10] | 167 ± 36.3 ng/g | 124 ± 12.2 ng/g | 53.8 ± 7.6 ng/g | 69% | – |
| Cc1cc(O)c([C@@H]2O[C@H](CO)[C@@H](O)[C@H](O)[C@H]2O)cc1Cc1ccc(CCCC(=O)NC(C)(C)C(N)=O)cc1 [compound 4] | 68.4 ± 7.49 ng/g | 85.5 ± 23.1 ng/g | 76.3 ± 15.5 ng/g | 51% | – |
